Measurements from PMC4360378 (Journal of Medicinal Chemistry, 2015).

What was measured:
[1] = target: T1, yeast Rtt109 (Saccharomyces cerevisiae, UniProt Q07794); experiment: Protein mass spectrometry; assay type: binding; conditions: 100 μM compound, 10 μM protein, 30 °C, 60 min; LC–MS/MS
T1 sequence (Q07794 1-436): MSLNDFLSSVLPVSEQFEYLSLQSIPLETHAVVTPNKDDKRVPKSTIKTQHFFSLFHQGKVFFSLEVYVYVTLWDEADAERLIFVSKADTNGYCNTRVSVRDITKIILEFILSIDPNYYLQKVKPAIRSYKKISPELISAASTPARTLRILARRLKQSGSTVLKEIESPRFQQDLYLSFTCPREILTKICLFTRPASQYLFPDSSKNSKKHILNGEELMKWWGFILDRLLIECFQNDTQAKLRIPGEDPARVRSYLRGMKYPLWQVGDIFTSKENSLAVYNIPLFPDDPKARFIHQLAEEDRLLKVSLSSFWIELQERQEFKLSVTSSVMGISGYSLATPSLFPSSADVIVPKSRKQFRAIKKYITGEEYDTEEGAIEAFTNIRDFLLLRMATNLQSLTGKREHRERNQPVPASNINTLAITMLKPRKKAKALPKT
T1 sequence (P53853 1-264 partner): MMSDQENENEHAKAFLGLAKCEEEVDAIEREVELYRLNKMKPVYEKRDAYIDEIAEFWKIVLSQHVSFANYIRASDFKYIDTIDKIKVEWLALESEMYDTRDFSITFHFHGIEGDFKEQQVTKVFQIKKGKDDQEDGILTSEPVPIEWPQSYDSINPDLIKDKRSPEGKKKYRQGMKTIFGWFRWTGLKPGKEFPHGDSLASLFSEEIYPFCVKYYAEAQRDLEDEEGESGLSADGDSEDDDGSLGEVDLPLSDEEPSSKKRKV

[2] = target: T2, human La antigen (Homo sapiens, UniProt P05455); experiment: ALARM NMR; assay type: binding; conditions: for ALARM NMR reactivity: 200 μM test compounds, absence of DTT, prevented by 20 mM DTT; for La protein conformation in ALARM NMR: without the inclusion of DTT
T2 sequence (P05455 100-324): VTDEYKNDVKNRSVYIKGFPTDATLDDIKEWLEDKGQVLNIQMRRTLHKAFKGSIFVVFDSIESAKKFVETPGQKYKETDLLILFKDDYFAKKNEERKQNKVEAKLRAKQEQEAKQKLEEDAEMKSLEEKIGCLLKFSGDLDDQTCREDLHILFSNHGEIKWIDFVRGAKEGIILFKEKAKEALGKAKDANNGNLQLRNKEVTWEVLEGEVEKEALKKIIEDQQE

[3] = target: T3, yeast Rtt109–Vps75 (Saccharomyces cerevisiae, UniProt Q07794); experiment: [3H]-acetyl-CoA HAT assay, Rtt109; assay type: biochemical; conditions: 1 mM DTT; results similar versus Rtt109-Vps75, p300, and Gcn5
T3 sequence (Q07794 1-436): T1 sequence (Q07794 1-436)
T3 sequence (P53853 1-264 partner): T1 sequence (P53853 1-264 partner)

[4] = Stability in HTS buffer by UPLC–MS; assay type: physicochemical; conditions: HTS buffer pH 8.0, UPLC–MS
[5] = target: T4, yeast Vps75 (Saccharomyces cerevisiae, UniProt P53853); experiment: Protein mass spectrometry; assay type: binding; conditions: 100 μM compound, 10 μM protein, 30 °C, 60 min; LC–MS/MS
T4 sequence (P53853 1-264): T1 sequence (P53853 1-264 partner)
T4 sequence (Q07794 1-436 partner): T1 sequence (Q07794 1-436)

SMILES: O=C(O)c1ccc(-n2nnnc2SC2=CS(=O)(=O)c3ccccc32)cc1 [1a]
- Peptide adduct detected, Rtt109 [1]: forms a detectable adduct with C94
- ALARM NMR reactivity [2]: covalently modify cysteines
- (+) DTT IC50 effect [3]: increase

SMILES: O=[N+]([O-])c1cc(Br)c2nsnc2c1Sc1ncnc2[nH]cnc12 [2a]
- stability in HTS buffer [4]: stable
- ALARM NMR reactivity [2]: covalently modify cysteines
- (+) DTT IC50 effect [3]: increase

SMILES: O=[N+]([O-])c1c(Sc2nnnn2-c2ccccc2)cc(Cl)c2nonc12 [2e]
- (+) DTT IC50 effect [3]: increase

SMILES: CNc1nc(-c2ccccc2)[n+](-c2ccccc2)s1.[Cl-] [3a]
- ALARM NMR reactivity [2]: covalently modify cysteines

SMILES: O=C1CC(Sc2nnc(-c3ccccc3O)o2)C(=O)N1c1ccc(Br)cc1 (stereo not shown) [4a]
- stability in HTS buffer [4]: thiol leaving groups (e.g., 4a″) were detected
- ALARM NMR reactivity [2]: covalently modify cysteines
- (+) DTT IC50 effect [3]: increase

SMILES: O=C(O)CCSc1cc(NS(=O)(=O)c2ccc(Br)cc2)c2ccccc2c1O [6a]
- Peptide adduct detected, Vps75 [5]: forms a detectable adduct with mono-oxidized C21
- ALARM NMR reactivity [2]: covalently modify cysteines
- La protein conformation in ALARM NMR [2]: strongly perturbed
- (+) DTT IC50 effect [3]: increase

SMILES: O=S(=O)(Nc1cc(Sc2ncn[nH]2)c(O)c2ccccc12)c1ccc2ccccc2c1 [6b]
- ALARM NMR reactivity [2]: covalently modify cysteines
- La protein conformation in ALARM NMR [2]: strongly perturbed

SMILES: O=C(O)CSc1cc(NS(=O)(=O)c2ccc(C(=O)O)cc2)c2ccccc2c1O [6c]
- (+) DTT IC50 effect [3]: increase

SMILES: O=S(=O)(Nc1cc(Cl)c(O)c2ccccc12)c1ccc(Br)cc1 [6e]
- (+) DTT IC50 effect [3]: increase

SMILES: O=C(O)CSc1cc(NS(=O)(=O)c2ccc(Br)cc2)c2ccccc2c1O [6y]
- (+) DTT IC50 effect [3]: increase

SMILES: CCN(CC)c1ccc2c(C)c(-c3ccc(N4C(=O)C=CC4=O)cc3)c(=O)oc2c1 [CPM, N-[4-(7-diethylamino-4-methylcoumarin-3-yl)phenyl]maleimide, reference compound]
- (+) DTT IC50 effect [3]: increase

SMILES: OC(Cn1cncn1)(Cn1cncn1)c1ccc(F)cc1F [fluconazole, reference compound]
- (+) DTT IC50 effect [3]: none
